In ChEMBL document CHEMBL5500372, “Novel natural osthole-inspired amphiphiles as membrane targeting antibacterials against methicillin-resistant Staphylococcus aureus (MRSA)” (Eur J Med Chem, 2024):
Calls of active or inactive are those of the source. The calls are words filed in the database; no cut-off is given here.

Tests used:
Staphylococcus aureus [1] = assay: Antibacterial activity against methicillin-resistant Staphylococcus aureus clinical isolate 20 measured after 18 hrs by CLSI based broth microdilution method; type: functional
[2] = Toxicity in female KM mouse assessed as effect on histopathological abnormalities in lungs at 20 mg/kg, sc measured after 24 hrs by H and E staining based analysis; type: organism-based; conditions: in vivo
[3] = Toxicity in female KM mouse skin abscess model infected with methicillin-resistant Staphylococcus aureus clinical isolate 16 assessed as effect on heart at 5 to 10 mg/kg, sc measured after 24 hrs by H and E staining based analysis; type: organism-based; conditions: in vivo, dose 5-10 mg/kg
Escherichia coli = assay: Antibacterial activity against Escherichia coli ATCC 25922 measured after 18 hrs by CLSI based broth microdilution method; type: functional
Staphylococcus aureus [4] = assay: Antibacterial activity against methicillin-resistant Staphylococcus aureus clinical isolate 13 measured after 18 hrs by CLSI based broth microdilution method; type: functional
[5] = Toxicity in female KM mouse assessed as redness in skin at 40 to 80 mg/kg, sc measured after 24 hrs; type: organism-based; conditions: in vivo, dose 40-80 mg/kg
[6] = Hemolytic activity in sheep erythrocyte assessed as hemolysis incubated for 1 hr by absorbance based analysis; type: toxicity, cell-based, Ovis aries; conditions: sheep erythrocytes
[7] = Toxicity in female KM mouse assessed as effect on red blood cell at upto 20 mg/kg, sc measured after 24 hrs; type: organism-based; conditions: in vivo
Cell membrane [8] = assay: Induction of cell membrane disruption in methicillin-resistant Staphylococcus aureus clinical isolate 16 assessed as intact cells (Q3 region) at 8 ug/ml measured after 2 hrs by SYTO-9 and PI staining based flow cytometry analysis (reference value: 96.0%); type: cell membranes; conditions: dose 8.0 µg/ml
Cell membrane [9] = assay: Disruption of cell membrane in methicillin-resistant Staphylococcus aureus clinical isolate 16 assessed as increase in intracellular ROS level incubated for 50 mins by DCFH-DA staining based fluorescence assay; type: cell membranes
Staphylococcus aureus [10] = assay: Antibacterial activity against methicillin-resistant Staphylococcus aureus clinical isolate 12 measured after 18 hrs by CLSI based broth microdilution method; type: functional
Staphylococcus aureus [11] = assay: Antibacterial activity against methicillin-resistant Staphylococcus aureus clinical isolate 21 measured after 18 hrs by CLSI based broth microdilution method; type: functional
Staphylococcus aureus [12] = assay: Antibacterial activity against methicillin-resistant Staphylococcus aureus clinical isolate 16 infected in female KM mouse skin abscess model assessed as effect on abscess in intradermal tissue at 5 mg/kg, sc measured after 24 hrs; type: functional, organism-based
Staphylococcus aureus [13] = assay: Antibacterial activity against methicillin-resistant Staphylococcus aureus clinical isolate 16 infected in female KM mouse skin abscess model assessed as effect on skin lesions at 10 mg/kg, sc measured after 24 hrs; type: functional, organism-based
[14] = Toxicity in female KM mouse assessed as effect on UREA at upto 20 mg/kg, sc measured after 24 hrs by biochemical test; type: organism-based; conditions: in vivo
Cell membrane [15] = assay: Induction of cell membrane disruption in methicillin-resistant Staphylococcus aureus clinical isolate 16 assessed as dead cells (Q1 region) at 8 ug/ml measured after 2 hrs by SYTO-9 and PI staining based flow cytometry analysis (reference value: 0%); type: cell membranes; conditions: dose 8.0 µg/ml
Cell membrane [16] = assay: Induction of cytoplasmic membrane depolarization in methicillin-resistant Staphylococcus aureus clinical isolate 16 assessed as increase in fluorescence intensity at 8 to 32 time MIC measured for 10 mins by DiSC3-5 dye based fluorescence method
Cell membrane [17] = assay: Induction of cell membrane disruption in methicillin-resistant Staphylococcus aureus clinical isolate 16 assessed as intact cells (Q3 region) at 4 ug/ml measured after 2 hrs by SYTO-9 and PI staining based flow cytometry analysis (reference value: 96.0%); type: cell membranes; conditions: dose 4.0 µg/ml
[18] = Toxicity in female KM mouse assessed as effect on liver at 20 mg/kg, sc measured after 24 hrs by H and E staining based analysis; type: organism-based; conditions: in vivo
Staphylococcus aureus [19] = assay: Antibacterial activity against methicillin-resistant Staphylococcus aureus clinical isolate 16 infected in female KM mouse skin abscess model assessed as reduction in inflammatory cells at 5 to 10 mg/kg, sc measured after 24 hrs by H and E staining based analysis; type: functional, organism-based; conditions: dose 5-10 mg/kg
Cell membrane [20] = assay: Induction of cytoplasmic membrane permeabilization in methicillin-resistant Staphylococcus aureus clinical isolate 16 assessed as increase in fluorescence intensity at 8 to 32 time MIC measured for 10 mins by SYTOX green dye based fluorescence analysis; type: cell membranes
[21] = Toxicity in female KM mouse assessed as adverse reaction in skin at 20 mg/kg, sc measured after 24 hrs; type: organism-based; conditions: in vivo
[22] = Toxicity in female KM mouse skin abscess model infected with methicillin-resistant Staphylococcus aureus clinical isolate 16 assessed as effect on kidney at 5 to 10 mg/kg, sc measured after 24 hrs by H and E staining based analysis; type: organism-based; conditions: in vivo, dose 5-10 mg/kg
[23] = Toxicity in female KM mouse assessed as effect on platelet count at upto 20 mg/kg, sc measured after 24 hrs; type: organism-based; conditions: in vivo
Cell membrane [24] = assay: Disruption of cell membrane in methicillin-resistant Staphylococcus aureus clinical isolate 16 assessed as appearance of uneven surface at 16 ug/ml measured after 4 hrs by SEM analysis; type: cell membranes; conditions: dose 16.0 µg/ml
[25] = Toxicity in female KM mouse assessed as effect on histopathological abnormalities in kidney at 20 mg/kg, sc measured after 24 hrs by H and E staining based analysis; type: organism-based; conditions: in vivo
Staphylococcus aureus [26] = assay: Antibacterial activity against methicillin-resistant Staphylococcus aureus clinical isolate 16 measured after 18 hrs in presence of cardiolipin by checkerboard broth dilution method; type: functional, organism-based
[27] = Toxicity in female KM mouse assessed as swelling in skin at 40 to 80 mg/kg, sc measured after 24 hrs; type: organism-based; conditions: in vivo, dose 40-80 mg/kg
Staphylococcus aureus [28] = assay: Antibacterial activity against methicillin-resistant Staphylococcus aureus clinical isolate 16 infected in female KM mouse skin abscess model assessed as reduction in infiltration of inflammatory cells in dermis at 10 mg/kg, sc measured after 24 hrs by H and E staining based analysis; type: functional, organism-based
Cell membrane [29] = assay: Disruption of cell membrane in methicillin-resistant Staphylococcus aureus clinical isolate 16 assessed as increase in blue fluorescence at 8 times MIC measured after 4 hrs by DAPI and PI staining based laser confocal microscopy based analysis; type: cell membranes
[30] = Toxicity in female KM mouse assessed as effect on hemoglobin at upto 20 mg/kg, sc measured after 24 hrs; type: organism-based; conditions: in vivo
Staphylococcus aureus [31] = assay: Antibacterial activity against methicillin-resistant Staphylococcus aureus clinical isolate 16 infected in female KM mouse skin abscess model assessed as reduction in number of MRSA cells at 5 to 10 mg/kg, sc measured after 24 hrs; type: functional, organism-based; conditions: dose 5-10 mg/kg
[32] = Toxicity in female KM mouse assessed as effect on albumin at upto 20 mg/kg, sc measured after 24 hrs by biochemical test; type: organism-based; conditions: in vivo
[33] = Toxicity in female KM mouse assessed as animal death at 80 mg/kg, sc measured after 24 hrs; type: organism-based; conditions: in vivo
Cell membrane [34] = assay: Disruption of cell membrane in methicillin-resistant Staphylococcus aureus clinical isolate 16 assessed as increase in protein leakage incubated for 4 hrs by microspectrophotometric analysis; type: cell membranes; conditions: dose <= 8.0 µg/ml
[35] = Toxicity in female KM mouse skin abscess model infected with methicillin-resistant Staphylococcus aureus clinical isolate 16 assessed as effect on spleen at 5 to 10 mg/kg, sc measured after 24 hrs by H and E staining based analysis; type: organism-based; conditions: in vivo, dose 5-10 mg/kg

For CCCCCCNC(=O)C[N+](C)(C)CCCCCOc1ccc2ccc(=O)oc2c1CC=C(C)C.[Br-], the MIC (Staphylococcus aureus [1]) was 2 µg/mL, the Activity [2] was “Non-Toxic” and the Activity [3] was “Non-Toxic”. For the same compound, the MIC (Escherichia coli) was 32 µg/mL, the MIC (Staphylococcus aureus [4]) was 2 µg/mL and the Activity [5] was “Toxic”. The HC50 at 1 h [6] was 1040 µg/mL, the Activity [7] was “Non-Toxic” and the Activity (Cell membrane [8]) was 45.3%. For the same compound, the Activity (Cell membrane [9]) was “Dose-Dependent Effect”, the MIC (Staphylococcus aureus [10]) was 2 µg/mL and the MIC (Staphylococcus aureus [11]) was 2 µg/mL. The Activity (Staphylococcus aureus [12]) was “Active”, the Activity (Staphylococcus aureus [13]) was “inactive” and the Activity [14] was “Non-Toxic”. For the same compound, the Activity (Cell membrane [15]) was 0.34%, the Activity (Cell membrane [16]) was “Active” and the Activity (Cell membrane [17]) was 76.9%. The Activity [18] was “Non-Toxic”, the Activity (Staphylococcus aureus [19]) was “Active” and the Activity (Cell membrane [20]) was “Active”. For the same compound, the Activity [21] was “Non-Toxic”, the Activity [22] was “Non-Toxic” and the Activity [23] was “Non-Toxic”. For the same compound, the Activity (Cell membrane [24]) was “Active”, the Activity [25] was “Non-Toxic” and the Activity (Staphylococcus aureus [26]) was “Active”. For the same compound, the Activity [27] was “Toxic”, the Activity (Staphylococcus aureus [28]) was “Active” and the Activity (Cell membrane [29]) was “Active”. The Activity [30] was “Non-Toxic”, the Activity (Staphylococcus aureus [31]) was “Active” and the Activity [32] was “Non-Toxic”. For the same compound, the Activity [33] was “Non-Toxic”, the Activity (Cell membrane [34]) was “Dose-Dependent Effect” and the Activity [35] was “Non-Toxic”.
